# Data taken from BindingDB's records for PubMed 35695407 (Chinese Academy of Sciences, 2022).
# Molecular target: T1, Programmed cell death protein 4 (Homo sapiens, UniProt Q53EL6)
# T1 sequence (Q53EL6 whole entry): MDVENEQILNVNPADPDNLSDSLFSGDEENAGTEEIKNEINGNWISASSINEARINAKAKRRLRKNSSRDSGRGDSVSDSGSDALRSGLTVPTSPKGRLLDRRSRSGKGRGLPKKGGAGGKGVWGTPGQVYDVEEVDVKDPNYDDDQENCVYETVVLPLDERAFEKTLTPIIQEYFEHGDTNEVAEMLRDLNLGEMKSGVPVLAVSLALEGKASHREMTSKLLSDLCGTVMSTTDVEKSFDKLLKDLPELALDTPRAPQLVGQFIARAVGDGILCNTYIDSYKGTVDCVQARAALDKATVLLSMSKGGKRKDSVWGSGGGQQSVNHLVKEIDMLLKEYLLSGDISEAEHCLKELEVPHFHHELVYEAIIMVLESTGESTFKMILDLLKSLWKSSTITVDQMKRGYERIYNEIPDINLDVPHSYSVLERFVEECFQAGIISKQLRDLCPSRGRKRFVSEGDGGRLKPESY
# Test: Inhibition of PDCD4 in human HeLa cells tranfected with pCI-neo-luciferase-PDCD4 3'-UTR plasmid assessed as increase in luciferase activity by luciferase reporter assay
structure (smiles),measurement,value
CCOC(=O)c1nc(-c2ccc(OC)cc2)oc1C,EC50,2.25 µM
